# Experimental data as given in PubChem BioAssay AID1918948 (Molecular Pharmacology Branch, DTP, NCI, 2023).
# Tested on: K-562 leukemia growth, % test/control
# Experiment: Anticancer human tumor K-562 cell line growth inhibition;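 note: spheroids exposed to compounds for 7 days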;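 for viability, T/C: 100% = DMSO vehicle wells and lower values mean fewer viable cells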
# Conditions: spheroids with HUVEC and MSC; for IC50: curve of first compound; for viability, T/C: stronger effect = lower value
# Method in brief: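 Multicellular complex spheroids of tumor cells with human endothelial cells (HUVEC) and mesenchymal stem cells; the LSD1 inhibitor iadademstat was combined with standard-of-care or investigational agents. Top concentration at or near clinical Cmax, half-log dilutions; final DMSO ≤0.25%.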
# [1] = second compound 0.1 µM, first compound 0.00316 µM
# [2] = second compound 0.1 µM, first compound 0.01 µM
# [3] = second compound 0.1 µM, first compound 0.0316 µM
# [4] = second compound 0.1 µM, first compound 0.1 µM
# [5] = second compound 0.316 µM, first compound 0.00316 µM
# [6] = second compound 0.316 µM, first compound 0.01 µM
# [7] = second compound 0.316 µM, first compound 0.0316 µM
# [8] = second compound 0.316 µM, first compound 0.1 µM
# [9] = second compound 1 µM, first compound 0.00316 µM
# [10] = second compound 1 µM, first compound 0.01 µM
# [11] = second compound 1 µM, first compound 0.0316 µM
# [12] = second compound 1 µM, first compound 0.1 µM
# [13] = second compound 3.16 µM, first compound 0.00316 µM
# [14] = second compound 3.16 µM, first compound 0.01 µM
# [15] = second compound 3.16 µM, first compound 0.0316 µM
# [16] = second compound 3.16 µM, first compound 0.1 µM
# [17] = second compound 10 µM, first compound 0.00316 µM
# [18] = second compound 10 µM, first compound 0.01 µM
# [19] = second compound 10 µM, first compound 0.0316 µM
# [20] = second compound 10 µM, first compound 0.1 µM
# [21] = second compound 0.1 µM, first compound 0.00949 µM
# [22] = second compound 0.1 µM, first compound 0.03 µM
# [23] = second compound 0.1 µM, first compound 0.0949 µM
# [24] = second compound 0.1 µM, first compound 0.3 µM
# [25] = second compound 0.1 µM, first compound 0.949 µM
# [26] = second compound 0.1 µM, first compound 3 µM
# [27] = second compound 0.316 µM, first compound 0.00949 µM
# [28] = second compound 0.316 µM, first compound 0.03 µM
# [29] = second compound 0.316 µM, first compound 0.0949 µM
# [30] = second compound 0.316 µM, first compound 0.3 µM
# [31] = second compound 0.316 µM, first compound 0.949 µM
# [32] = second compound 0.316 µM, first compound 3 µM
# [33] = second compound 1 µM, first compound 0.00949 µM
# [34] = second compound 1 µM, first compound 0.03 µM
# [35] = second compound 1 µM, first compound 0.0949 µM
# [36] = second compound 1 µM, first compound 0.3 µM
# [37] = second compound 1 µM, first compound 0.949 µM
# [38] = second compound 1 µM, first compound 3 µM
# [39] = second compound 3.16 µM, first compound 0.00949 µM
# [40] = second compound 3.16 µM, first compound 0.03 µM
# [41] = second compound 3.16 µM, first compound 0.0949 µM
# [42] = second compound 3.16 µM, first compound 0.3 µM
# [43] = second compound 3.16 µM, first compound 0.949 µM
# [44] = second compound 3.16 µM, first compound 3 µM
# [45] = second compound 10 µM, first compound 0.00949 µM
# [46] = second compound 10 µM, first compound 0.03 µM
# [47] = second compound 10 µM, first compound 0.0949 µM
# [48] = second compound 10 µM, first compound 0.3 µM
# [49] = second compound 10 µM, first compound 0.949 µM
# [50] = second compound 10 µM, first compound 3 µM
compound,measurement,setting,value
CC(C)CC(NC(=O)CNC(=O)c1cc(Cl)ccc1Cl)B1OC(=O)CC(CC(=O)O)(C(=O)O)O1 (stereo not given) + NC1CCC(NC2CC2c2ccccc2)CC1,IC50,second compound 0.1 µM,12.9 nM
same,IC50,second compound 0.316 µM,12.8 nM
same,IC50,second compound 1 µM,13.1 nM
same,IC50,second compound 3.16 µM,13.4 nM
same,IC50,second compound 10 µM,11.7 nM
same,"viability, T/C","second compound 0.1 µM, first compound 0.000316 µM",102%
same,"viability, T/C","second compound 0.1 µM, first compound 0.001 µM",96.6%
same,"viability, T/C",[1],100%
same,"viability, T/C",[2],59.5%
same,"viability, T/C",[3],15.6%
same,"viability, T/C",[4],6.56%
same,"viability, T/C","second compound 0.316 µM, first compound 0.000316 µM",99.6%
same,"viability, T/C","second compound 0.316 µM, first compound 0.001 µM",102%
same,"viability, T/C",[5],102%
same,"viability, T/C",[6],58.7%
same,"viability, T/C",[7],16.7%
same,"viability, T/C",[8],6.02%
same,"viability, T/C","second compound 1 µM, first compound 0.000316 µM",104%
same,"viability, T/C","second compound 1 µM, first compound 0.001 µM",102%
same,"viability, T/C",[9],102%
same,"viability, T/C",[10],61.5%
same,"viability, T/C",[11],12.8%
same,"viability, T/C",[12],6.77%
same,"viability, T/C","second compound 3.16 µM, first compound 0.000316 µM",103%
same,"viability, T/C","second compound 3.16 µM, first compound 0.001 µM",98.1%
same,"viability, T/C",[13],103%
same,"viability, T/C",[14],60.6%
same,"viability, T/C",[15],16.9%
same,"viability, T/C",[16],5.71%
same,"viability, T/C","second compound 10 µM, first compound 0.000316 µM",97.9%
same,"viability, T/C","second compound 10 µM, first compound 0.001 µM",99.5%
same,"viability, T/C",[17],96.5%
same,"viability, T/C",[18],54.2%
same,"viability, T/C",[19],16.9%
same,"viability, T/C",[20],4.71%
COc1cc(Nc2ncc3c(n2)-c2ccc(Cl)cc2C(c2c(F)cccc2OC)=NC3)ccc1C(=O)O + NC1CCC(NC2CC2c2ccccc2)CC1,IC50,second compound 0.1 µM,3.23 nM
same,IC50,second compound 0.316 µM,3.86 nM
same,IC50,second compound 1 µM,3.25 nM
same,IC50,second compound 3.16 µM,3.29 nM
same,IC50,second compound 10 µM,< 3.16 nM
same,"viability, T/C",[1],51%
same,"viability, T/C",[2],21.1%
same,"viability, T/C",[3],20.4%
same,"viability, T/C",[4],17.8%
same,"viability, T/C","second compound 0.1 µM, first compound 0.316 µM",14.6%
same,"viability, T/C","second compound 0.1 µM, first compound 1 µM",10.7%
same,"viability, T/C",[5],55.8%
same,"viability, T/C",[6],22.6%
same,"viability, T/C",[7],22%
same,"viability, T/C",[8],19.3%
same,"viability, T/C","second compound 0.316 µM, first compound 0.316 µM",13.9%
same,"viability, T/C","second compound 0.316 µM, first compound 1 µM",11.1%
same,"viability, T/C",[9],51.4%
same,"viability, T/C",[10],21%
same,"viability, T/C",[11],23.4%
same,"viability, T/C",[12],16.7%
same,"viability, T/C","second compound 1 µM, first compound 0.316 µM",13.1%
same,"viability, T/C","second compound 1 µM, first compound 1 µM",12.1%
same,"viability, T/C",[13],51.1%
same,"viability, T/C",[14],21.3%
same,"viability, T/C",[15],23.7%
same,"viability, T/C",[16],21.4%
same,"viability, T/C","second compound 3.16 µM, first compound 0.316 µM",18.5%
same,"viability, T/C","second compound 3.16 µM, first compound 1 µM",12.1%
same,"viability, T/C",[17],46.5%
same,"viability, T/C",[18],22.1%
same,"viability, T/C",[19],25.6%
same,"viability, T/C",[20],24.6%
same,"viability, T/C","second compound 10 µM, first compound 0.316 µM",19.9%
same,"viability, T/C","second compound 10 µM, first compound 1 µM",12.6%
NS(=O)(=O)OCC1CC(n2ccc3c(NC4CCc5ccccc54)ncnc32)CC1O (stereo not given) + NC1CCC(NC2CC2c2ccccc2)CC1,IC50,second compound 0.1 µM,17.1 nM
same,IC50,second compound 0.316 µM,17 nM
same,IC50,second compound 1 µM,14.9 nM
same,IC50,second compound 3.16 µM,10.9 nM
same,IC50,second compound 10 µM,< 9.49 nM
same,"viability, T/C",[21],58.9%
same,"viability, T/C",[22],36%
same,"viability, T/C",[23],40.5%
same,"viability, T/C",[24],27.8%
same,"viability, T/C",[25],15.8%
same,"viability, T/C",[26],8.88%
same,"viability, T/C",[27],58.9%
same,"viability, T/C",[28],36.4%
same,"viability, T/C",[29],40%
same,"viability, T/C",[30],21.4%
same,"viability, T/C",[31],13.9%
same,"viability, T/C",[32],9.49%
same,"viability, T/C",[33],56.7%
same,"viability, T/C",[34],36.8%
same,"viability, T/C",[35],37%
same,"viability, T/C",[36],24.7%
same,"viability, T/C",[37],11.8%
same,"viability, T/C",[38],8.79%
same,"viability, T/C",[39],53.5%
same,"viability, T/C",[40],33.4%
same,"viability, T/C",[41],33.1%
same,"viability, T/C",[42],18.8%
same,"viability, T/C",[43],8.53%
same,"viability, T/C",[44],5.87%
same,"viability, T/C",[45],42%
same,"viability, T/C",[46],22.7%
same,"viability, T/C",[47],17.9%
same,"viability, T/C",[48],8.46%
same,"viability, T/C",[49],3.21%
same,"viability, T/C",[50],1.65%
O=C(C=Cc1cccc(S(=O)(=O)Nc2ccccc2)c1)NO + NC1CCC(NC2CC2c2ccccc2)CC1,IC50,second compound 0.1 µM,417 nM
same,IC50,second compound 0.316 µM,421 nM
same,IC50,second compound 1 µM,430 nM
same,IC50,second compound 3.16 µM,325 nM
same,IC50,second compound 10 µM,136 nM
same,"viability, T/C",[21],103%
same,"viability, T/C",[22],105%
same,"viability, T/C",[23],106%
same,"viability, T/C",[24],69.5%
same,"viability, T/C",[25],1.52%
same,"viability, T/C",[26],0.12%
same,"viability, T/C",[27],106%
same,"viability, T/C",[28],107%
same,"viability, T/C",[29],108%
same,"viability, T/C",[30],70.2%
same,"viability, T/C",[31],1.56%
same,"viability, T/C",[32],0.11%
same,"viability, T/C",[33],106%
same,"viability, T/C",[34],107%
same,"viability, T/C",[35],105%
same,"viability, T/C",[36],72%
same,"viability, T/C",[37],1.58%
same,"viability, T/C",[38],0.93%
same,"viability, T/C",[39],101%
same,"viability, T/C",[40],99.8%
same,"viability, T/C",[41],97.4%
same,"viability, T/C",[42],53.7%
same,"viability, T/C",[43],1.85%
same,"viability, T/C",[44],0.87%
same,"viability, T/C",[45],65.4%
same,"viability, T/C",[46],59.1%
same,"viability, T/C",[47],61.2%
same,"viability, T/C",[48],25.9%
same,"viability, T/C",[49],1.37%
same,"viability, T/C",[50],0.45%
